The target in the series is T1, OATP-C protein (Homo sapiens, UniProt Q9Y6L6).
T1 sequence (Q9Y6L6 1-691): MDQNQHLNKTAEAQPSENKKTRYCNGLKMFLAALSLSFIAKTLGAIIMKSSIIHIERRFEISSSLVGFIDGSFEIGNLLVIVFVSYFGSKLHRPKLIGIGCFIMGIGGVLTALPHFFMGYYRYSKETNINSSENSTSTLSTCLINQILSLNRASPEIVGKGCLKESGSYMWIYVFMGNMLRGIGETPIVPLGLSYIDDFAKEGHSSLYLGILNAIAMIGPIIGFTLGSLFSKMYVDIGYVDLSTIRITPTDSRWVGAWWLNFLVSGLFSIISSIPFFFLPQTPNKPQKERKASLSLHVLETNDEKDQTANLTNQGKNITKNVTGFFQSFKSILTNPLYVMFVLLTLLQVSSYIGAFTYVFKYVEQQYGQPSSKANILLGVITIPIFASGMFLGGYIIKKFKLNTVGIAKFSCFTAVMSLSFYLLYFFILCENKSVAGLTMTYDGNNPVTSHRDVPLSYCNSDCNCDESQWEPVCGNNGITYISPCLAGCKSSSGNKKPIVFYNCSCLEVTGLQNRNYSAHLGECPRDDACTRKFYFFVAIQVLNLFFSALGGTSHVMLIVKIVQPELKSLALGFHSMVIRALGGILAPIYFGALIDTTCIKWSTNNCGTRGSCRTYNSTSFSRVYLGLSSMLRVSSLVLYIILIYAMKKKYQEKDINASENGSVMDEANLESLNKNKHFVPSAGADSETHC
Kind of series: Transport experiment: uptake of labeled substrates into HEK293 cells transfected with OATP-C. On the procedure: The human fetal kidney-derived cell strain, HEK 293 cells, were transfected with the plasmid pcDNA3/OATP-C or the pcDNA3 vector containing no insert as a control (mock) by the calcium phosphate method. Specifically, the plasmid DNA (10 μg), a Hepes buffer solution (137 mM NaCl 5 mM KCl, 0.7 mM Na2HPO4, 6 mM dextrose, and 21 mM Hepes pH 7.1) (1 ml), and 2 M CaCl2 (62.5 μl) were mixed and the resultant mixture was allowed to stand at room temperature for 30 min or more to form calcium phosphate coprecipitates. After the cells were plated on 10-cm diameter plates at a concentration of 1.5×10^6 cells per plate, and the cells were cultured for 24 h. The above-described calcium phosphate coprecipitates were added thereto, and the cells were further cultured for 24 h. Then, plates were washed with phosphate buffered saline (PBS), and after the addition of fresh culture medium, the cells were further cultured for 24 h.
Transport experiment was performed using the cells transfected with the plasmid DNA according to the following procedures. The cells were detached from the plates using a rubber policeman, suspended in a transport buffer (containing 125 mM NaCl, 4.8 mM KCl, 5.6 mM (+)-glucose, 1.2 mM CaCl2, 1.2 mM KH2PO4, 1.2 mM MgSO4, and 25 mM Hepes pH 7.4), and pre-incubated for 20 min. […] Incubated cells were overlaid on a silicon layer formed by laying a mixture of silicon oil and liquid paraffin (specific gravity=1.022) on a 3 M KCl layer, and separated by centrifugation. Radioactivity of cells was measured to determine the into-the-cell transport activity. In this case, 1×10^6 cells were used as one point of cells.
Herein, the culture of HEK 293 cells was performed using Dulbecco's MEM containing 10% FCS (fetal calf serum) as the culture medium in an atmosphere of 5% carbon dioxide at 37° C.

Where [1] appears, read: HEK293 cells expressing OATP-C vs mock, labeled substrate, 37° C. (FIG. 3).

Like-named read-outs stand apart in the source and are kept apart here.

Consider `CCCCC[C@H](O)/C=C/[C@H]1[C@H](O)CC(=O)[C@@H]1C/C=C\CCCC(=O)O` [prostaglandin E2], for which the into-the-cell transport activity result under setting [1] was “weak transport activity”. `C[C@]12CC[C@@H]3c4ccc(OS(=O)(=O)O)cc4CC[C@H]3[C@@H]1CCC2=O` [estron-3-sulfate]: the into-the-cell transport activity result under setting [1] is given as “transport was obviously observed”. Take `C[C@]12CC[C@@H]3c4ccc(O)cc4CC[C@H]3[C@@H]1CC[C@@H]2O[C@@H]1O[C@H](C(=O)O)[C@@H](O)[C@H](O)[C@H]1O` [estradiol-17β-glucuronide]: under setting [1], the into-the-cell transport activity result is “transport was obviously observed”. For the same molecule, the “alteration of transport mediated by OATP-C protein” value is, setting by setting: (chloride ion substituted with gluconate (FIG. 6)) “No alteration”; (sodium ion replaced with N-methylglucamine (FIG. 6)) “No alteration”. With `C[C@@H]1O[C@@H](O[C@H]2C[C@@H](O)[C@]3(CO)[C@H]4[C@H](O)C[C@]5(C)[C@@H](C6=CC(=O)OC6)CC[C@]5(O)[C@@H]4CC[C@]3(O)C2)[C@H](O)[C@H](O)[C@H]1O` [ouabain], the into-the-cell transport activity entry under setting [1] is listed as “weak transport activity”. For the molecule `CN(Cc1cnc2nc(N)nc(N)c2n1)c1ccc(C(=O)N[C@@H](CCC(=O)O)C(=O)O)cc1` [methotrexate], the into-the-cell transport activity result was “weak transport activity”.
